This passage reports inhibition and IC50 results from US8691855B2, “Compounds, isomer thereof, or pharmaceutically acceptable salts thereof as vanilloid receptor antagonist and pharmaceutical compositions containing the same” (Amorepacific Corporation, priority 2008, dated 2014).

Molecules are shown by their SMILES. pIC50: −log10 of the molar value. Bounds are passed on as bounds.

The first experiment deals with T1, vanilloid receptor (Rattus norvegicus, UniProt O35433).
T1 construct: DRG nerve cells from the primary culture of 2 days were equilibrated; endogenous in cells; host or cells: primary culture of dorsal root ganglion neurons from neonatal SD rats
T1 sequence (O35433 whole entry): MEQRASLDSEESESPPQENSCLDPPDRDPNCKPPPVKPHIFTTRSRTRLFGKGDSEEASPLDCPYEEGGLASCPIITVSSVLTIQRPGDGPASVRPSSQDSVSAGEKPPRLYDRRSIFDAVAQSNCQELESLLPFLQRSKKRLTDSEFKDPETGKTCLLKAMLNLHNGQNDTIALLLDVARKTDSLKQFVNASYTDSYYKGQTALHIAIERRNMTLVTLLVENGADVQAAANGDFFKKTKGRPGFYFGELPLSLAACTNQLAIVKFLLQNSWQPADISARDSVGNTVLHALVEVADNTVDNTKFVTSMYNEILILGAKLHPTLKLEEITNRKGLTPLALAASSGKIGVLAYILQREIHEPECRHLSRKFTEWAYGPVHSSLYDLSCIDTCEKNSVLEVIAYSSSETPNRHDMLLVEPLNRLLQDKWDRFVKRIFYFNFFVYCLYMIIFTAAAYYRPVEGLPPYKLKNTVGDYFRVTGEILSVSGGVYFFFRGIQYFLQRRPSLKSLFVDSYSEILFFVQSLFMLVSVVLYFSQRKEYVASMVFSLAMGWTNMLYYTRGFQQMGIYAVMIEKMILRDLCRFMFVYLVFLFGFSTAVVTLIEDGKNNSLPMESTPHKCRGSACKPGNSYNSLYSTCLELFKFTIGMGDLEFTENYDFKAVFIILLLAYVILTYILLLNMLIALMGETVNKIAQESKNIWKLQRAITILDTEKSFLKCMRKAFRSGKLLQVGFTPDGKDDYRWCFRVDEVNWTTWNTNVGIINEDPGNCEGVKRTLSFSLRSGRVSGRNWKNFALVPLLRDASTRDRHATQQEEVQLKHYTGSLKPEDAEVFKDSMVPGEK
The experiment in a line: 45Ca influx test (antagonist calcium uptake test) in rat DRG neurons stimulated with capsaicin. It is filed as cell-based. Conditions: DRG neuron; @10 μM; neonatal SD rat DRG neurons; capsaicin 0.5 μM; read-out: Antagonist Calcium Uptake Test, percent inhibition of capsaicin response. How it is done: 1) Separation of spinal dorsal root ganglia (DRG) in newborn rats and primary culture thereof
Neonatal (2-3 clay old or younger than 2-3 day old) SD rats were put in ice for 5 minutes to anesthetize and disinfected with 70% ethanol. DRG of all part of spinal cord were dissected (Wood et al., 1988, J. Neurosci. 8, pp 3208-3220) and collected in DME/F12 medium to which 1.2 g/l sodium bicarbonate and 50 mg/l gentamycin were added. The DRG were incubated sequentially at 37° C. for 30 mins in 200 U/ml collagenase and 2.5 mg/ml trypsin, separately. The ganglia were washed twice with DME/F12 medium supplemented with 10% horse serum, triturated through a fire-polished Pasteur pipette, filtered through Nitex 80 membrane to obtain single cell suspension and the suspension was washed once more. This was subjected to centrifugation, then resuspended in cell culture medium at certain level of cell density. As the cell culture medium, DME/F12 medium supplemented with 10% horse serum was diluted with identical medium conditioned by C6 glioma cells 2 clays on a confluent monolayer (1:1), and NGF (Nerve Growth Factor) was added to adjust 200 ng/ml as final concentration. After the cells were grown 2 days in medium where cytosine arabinoside (Ara-C, 100 μM) was added to kill dividing nonneuronal cells, medium was changed to one without Ara-C. The resuspended cells were plated at a density of 1500-2000 neurons/well onto Terasaki plates previously coated with 10 μg/ml poly-D-ornithine.
2) ^45Ca Influx Experiments
DRG nerve cells from the primary culture of 2 days were equilibrated by washing 4 times with HEPES (10 mM, pH 7.4)-buffered Ca^2+, Mg^2+-free HBSS (H-HBSS). The solution in each well was removed from the individual well. Medium containing the test compound plus capsaicin (final concentration 0.5 μM) and ^45Ca (final concentration 10 μCi/ml) in H-HBSS was added to each well and incubated at room temperature for 10 nuns. Terasaki plates were washed five times with H-HBSS and dried at room temperature. To each well, 0.3% SDS (10 μl) was added to elute ^45Ca. After the addition of scintillation cocktail of into each well, the amount of ^45Ca influx into neuron was measured by counting radioactivity. Antagonistic activities of test compounds against vanilloid receptor were calculated as percent of the inhibition of maximal response of capsaicin at a concentration of 0.5 μM.
In the case of `C[C@@H](NC(=O)c1csc(Cc2cccc(C(F)(F)F)c2)n1)c1cc(F)c(NS(C)(=O)=O)c(F)c1` (stereo in doubt) [Example 20, 2-(3-Trifluoromethyl-benzyl)-thiazole-4-carboxylic acid [1-(3,5-difluoro-4-methanesulfonylamino-phenyl)-ethyl]-amide], the inhibition (as a rule, the change of the read-out against control, counted positive when it falls) at 10 µM turned out to be 67%.

The same experiment, now with this note: neonatal SD rat DRG neurons; capsaicin 0.5 μM; 45Ca.
As for `CC(C)c1cccc(Oc2nc(C(=O)N[C@H](C)c3cc(F)c(NS(C)(=O)=O)c(F)c3)cs2)c1` [Example 31, 2-(3-Isopropyl-phenoxy)-thiazole-4-carboxylic acid [1-(3,5-difluoro-4-methanesulfonylamino-phenyl)-ethyl]-amide], the pIC50 – broadly, the IC50 on a negative log10 scale, so that one unit is a factor of ten – was 5.70. As to `C[C@@H](NC(=O)c1coc(Oc2cccc(Br)c2)n1)c1cc(F)c(NS(C)(=O)=O)c(F)c1` [Example 15, 2-(3-Bromo-phenoxy)-oxazole-4-carboxylic acid [1-(3,5-difluoro-4-methanesulfonylamino-phenyl)-ethyl]-amide], the pIC50 was 6.22. Regarding `C[C@@H](NC(=O)c1csc(Cc2ccc(F)c(F)c2)n1)c1cc(F)c(NS(C)(=O)=O)c(F)c1` [Example 11, (R)—N-[1-(3,5-Difluoro-4-methanesulfonylamino-phenyl)-ethyl]-2-(3,4-difluorobenzyl)-thiazole-4-amide], the pIC50 was under 5.00. Turning to `CCCOc1cccc(-c2nc(C(=O)N[C@H](C)c3cc(F)c(NS(C)(=O)=O)c(F)c3)co2)c1` [Example 71, 2-(3-Propoxy-phenyl)-oxazole-4-carboxylic acid [1-(3,5-difluoro-4-methanesulfonylamino-phenyl)-ethyl]-amide], the pIC50 is 5.92. Same read-out and setting: then `C[C@@H](NC(=O)c1ccc(-c2ccc(F)c(C(F)(F)F)c2)o1)c1cc(F)c(NS(C)(=O)=O)c(F)c1` [Example 124, 5-(4-Fluoro-3-trifluoromethyl-phenyl)-furan-2-carboxylic acid [1-(3,5-difluoro-4-methanesulfonylamino-phenyl)-ethyl]-amide], with 7.38; and `C[C@@H](NC(=O)c1coc(-c2ccc(C(C)(C)C)cc2)n1)c1cc(F)c(NS(C)(=O)=O)c(F)c1` [Example 75, 2-(4-tort-Butyl-phenyl)-oxazole-4-carboxylic acid [1-(3,5-difluoro-4-methanesulfonylamino-phenyl)-ethyl]-amide], with 5.62; and `COc1cc(-c2nc(C(=O)N[C@H](C)c3cc(F)c(NS(C)(=O)=O)c(F)c3)co2)cc(C(F)(F)F)c1` [Example 97, 2-(3-Methoxy-5-trifluoromethyl-phenyl)-oxazole-4-carboxylic acid [1-(3,5-difluoro-4-methanesulfonylamino-phenyl)-ethyl]-amide], with 5.85. `CC(C)c1ccccc1Oc1nc(C(=O)N[C@H](C)c2cc(F)c(NS(C)(=O)=O)c(F)c2)co1` [Example 3, 2-(2-Isopropyl-phenoxy)-oxazole-4-carboxylic acid [1-(3,5-difluoro-4-methanesulfonylamino-phenyl)-ethyl]-amide]: the pIC50 was 6.31. Regarding `C[C@@H](NC(=O)c1coc(-c2ccccc2Cl)n1)c1cc(F)c(NS(C)(=O)=O)c(F)c1` (stereo in doubt) [Example 84, 2-(2-Chloro-phenyl)-oxazole-4-carboxylic acid [1-(3,5-difluoro-4-methanesulfonylamino-phenyl)-ethyl]-amide], the pIC50 was 5.13.

`CS(=O)(=O)Nc1ccc(CNC(=O)c2ccc(-c3ccc(F)c(C(F)(F)F)c3)o2)cc1F` [Example 125, 5-(4-Fluoro-3-trifluoromethyl-phenyl)-furan-2-carboxylic acid 3-fluoro-4-methanesulfonylamino-benzylamide]: the pIC50 was 6.28. Take `Cc1ccc(C2CCCCC2)c(Oc2nc(C(=O)N[C@H](C)c3cc(F)c(NS(C)(=O)=O)c(F)c3)co2)c1` [Example 50, 2-(2-Cyclohexyl-5-methyl-phenoxy)-oxazole-4-carboxylic acid [1-(3,5-difluoro-4-methanesulfonylamino-phenyl)-ethyl]-amide]: the pIC50 was 5.96.

As to `C[C@@H](NC(=O)c1coc(Oc2cccc(Cl)n2)n1)c1cc(F)c(NS(C)(=O)=O)c(F)c1` [Example 26], the pIC50 is under 5.00.

As to `CC(C)(C)c1ccc(-c2ccc(C(=O)NCc3cc(F)c(NS(C)(=O)=O)c(F)c3)s2)cc1` [Example 63, 5-(4-tert-Butyl-phenyl)-thiophene-2-carboxylic acid 3,5-difluoro-4-methanesulfonylamino-benzylamide], the pIC50 is under 5.00. Still for that read-out and setting: then `C[C@H](NC(=O)c1ccc(-c2cccc(C(F)(F)F)c2)o1)c1cc(F)c(NS(C)(=O)=O)c(F)c1` [Example 109, (S)-5-(3-Trifluoromethyl-phenyl)-furan-2-carboxylic acid [1-(3,5-difluoro-4-methanesulfonylamino-phenyl)-ethyl]-amide], with 6.57; and `C[C@@H](NC(=O)c1coc(Oc2cccc3cccnc23)n1)c1cc(F)c(NS(C)(=O)=O)c(F)c1` [Example 24, 2-(Quinolin-8-yloxy)-oxazole-4-carboxylic acid [1-(3,5-difluoro-4-methanesulfonylamino-phenyl)-ethyl]-amide], with under 5.00.

As to `C[C@@H](NC(=O)c1coc(Oc2cccc(C3CCC3)c2)n1)c1cc(F)c(NS(C)(=O)=O)c(F)c1` [Example 56, 2-(3-Cyclobutyl-phenoxy)-oxazole-4-carboxylic acid [1-(3,5-difluoro-4-methanesulfonylamino-phenyl)-ethyl]-amide], the pIC50 is 6.25.

For `COc1ccc(-c2nc(C(=O)N[C@H](C)c3cc(F)c(NS(C)(=O)=O)c(F)c3)co2)cc1C(F)(F)F` (stereo in doubt) [Example 96, 2-(4-Methoxy-3-trifluoromethyl-phenyl)-oxazole-4-carboxylic acid [1-(3,5-difluoro-4-methanesulfonylamino-phenyl)-ethyl]-amide], the pIC50 is 5.89. On to `C[C@@H](NC(=O)c1coc(Oc2ccc3c(c2)CCC3)n1)c1cc(F)c(NS(C)(=O)=O)c(F)c1` [Example 22, 2-(Indan-5-yloxy)-oxazole-4-carboxylic acid [1-(3,5-difluoro-4-methanesulfonylamino-phenyl)-ethyl]-amide], for which the pIC50 is 5.72.

Take `CCc1cccc(Oc2nc(C(=O)N[C@H](C)c3cc(F)c(NS(C)(=O)=O)c(F)c3)co2)c1` [Example 29, 2-(3-Ethyl-phenoxy)-oxazole-4-carboxylic acid [1-(3,5-difluoro-4-methanesulfonylamino-phenyl)-ethyl]-amide]: the pIC50 is 6.55. For the compound `C[C@@H](NC(=O)c1coc(Oc2cccc(I)c2)n1)c1cc(F)c(NS(C)(=O)=O)c(F)c1` [Example 58, 2-(3-Iodo-phenoxy)-oxazole-4-carboxylic acid [1-(3,5-difluoro-4-methanesulfonylamino-phenyl)-ethyl]-amide], the pIC50 is 7.03. Regarding `CCCCOc1ccccc1-c1nc(C(=O)N[C@H](C)c2cc(F)c(NS(C)(=O)=O)c(F)c2)co1` [Example 66, 2-(2-Butoxy-phenyl)-oxazole-4-carboxylic acid [1-(3,5-difluoro-4-methanesulfonylamino-phenyl)-ethyl]-amide], the pIC50 was 6.12. The same measure, in the same setting: for `C[C@@H](NC(=O)c1ccc(-c2cccc(C(F)(F)F)c2)o1)c1ccc(NS(C)(=O)=O)c(F)c1` [Example 111, 5-(3-Trifluoromethyl-phenyl)-furan-2-carboxylic acid [1-(3-fluoro-4-methanesulfonylamino-phenyl)-ethyl]-amide] the value was 6.62. In the case of `C[C@@H](NC(=O)c1coc(Oc2cc(C(F)(F)F)ccn2)n1)c1cc(F)c(NS(C)(=O)=O)c(F)c1` [Example 25, 2-(4-Trifluoromethyl-pyridin-2-yloxy)-oxazole-4-carboxylic acid [1-(3,5-difluoro-4-methanesulfonylamino-phenyl)-ethyl]-amide], the pIC50 was under 5.00. With `C[C@@H](NC(=O)c1coc(Oc2cccc(C3CCCC3)c2)n1)c1cc(F)c(NS(C)(=O)=O)c(F)c1` [Example 51, 2-(3-Cyclopentyl-phenoxy)-oxazole-4-carboxylic acid [1-(3,5-difluoro-4-methanesulfonylamino-phenyl)-ethyl]-amide], the pIC50 was 5.96. Consider `C[C@@H](NC(=O)c1coc(-c2cc(Br)cc(C3CC3)c2)n1)c1cc(F)c(NS(C)(=O)=O)c(F)c1` [Example 115, 2-(3-Bromo-5-cyclopropyl-phenyl)-oxazole-4-carboxylic acid [1-(3,5-difluoro-4-methanesulfonylamino-phenyl)-ethyl]-amide], for which the pIC50 is 6.11.
